This passage reports IC50 results from US20210070748A1, “INHIBITORS OF BRUTONS TYROSINE KINASE” (Pharmacyclics LLC, priority 2015, published 2021).

Assay [1] concerns the target T1, JAK3 (Homo sapiens, UniProt P52333).
T1 sequence (P52333 1-1124): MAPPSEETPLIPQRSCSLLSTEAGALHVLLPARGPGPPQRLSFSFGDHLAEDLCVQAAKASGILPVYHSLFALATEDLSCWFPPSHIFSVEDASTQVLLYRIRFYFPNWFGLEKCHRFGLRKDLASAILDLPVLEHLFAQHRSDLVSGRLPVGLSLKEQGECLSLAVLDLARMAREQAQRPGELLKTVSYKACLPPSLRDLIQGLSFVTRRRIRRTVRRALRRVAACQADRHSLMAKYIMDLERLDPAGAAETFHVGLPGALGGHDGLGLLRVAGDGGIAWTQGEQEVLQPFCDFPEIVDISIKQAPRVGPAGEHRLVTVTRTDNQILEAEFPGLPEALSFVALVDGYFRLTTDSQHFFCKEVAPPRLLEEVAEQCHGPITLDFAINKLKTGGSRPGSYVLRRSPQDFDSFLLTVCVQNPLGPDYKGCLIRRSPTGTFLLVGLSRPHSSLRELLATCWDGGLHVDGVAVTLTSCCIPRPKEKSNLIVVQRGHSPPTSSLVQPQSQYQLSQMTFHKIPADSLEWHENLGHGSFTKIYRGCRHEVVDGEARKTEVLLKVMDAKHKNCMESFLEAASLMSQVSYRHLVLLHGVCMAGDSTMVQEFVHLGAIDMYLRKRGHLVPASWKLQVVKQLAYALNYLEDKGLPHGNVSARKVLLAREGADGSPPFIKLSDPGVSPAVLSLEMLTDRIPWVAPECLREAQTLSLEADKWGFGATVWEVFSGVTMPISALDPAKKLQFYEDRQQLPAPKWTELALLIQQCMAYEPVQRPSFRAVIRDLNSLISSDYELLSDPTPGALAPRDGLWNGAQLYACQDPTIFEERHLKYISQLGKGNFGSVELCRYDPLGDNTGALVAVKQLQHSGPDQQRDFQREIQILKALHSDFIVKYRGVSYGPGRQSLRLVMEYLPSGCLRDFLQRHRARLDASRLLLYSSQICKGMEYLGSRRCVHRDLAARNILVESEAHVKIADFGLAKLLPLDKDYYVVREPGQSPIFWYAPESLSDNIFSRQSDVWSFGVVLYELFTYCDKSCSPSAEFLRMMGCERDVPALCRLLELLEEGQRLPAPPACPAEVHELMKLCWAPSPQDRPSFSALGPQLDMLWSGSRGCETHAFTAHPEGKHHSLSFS
The assay is described as follows: Inhibition of a panel of kinases, in vitro HotSpot kinase assay: JAK3. The note with it: D-compounds panel data; 1 μM ATP; read-out: IC50 JAK3. It is filed as biochemical.

In assay [2] the target is T2, ITK (Homo sapiens, UniProt Q08881).
T2 sequence (Q08881 1-620): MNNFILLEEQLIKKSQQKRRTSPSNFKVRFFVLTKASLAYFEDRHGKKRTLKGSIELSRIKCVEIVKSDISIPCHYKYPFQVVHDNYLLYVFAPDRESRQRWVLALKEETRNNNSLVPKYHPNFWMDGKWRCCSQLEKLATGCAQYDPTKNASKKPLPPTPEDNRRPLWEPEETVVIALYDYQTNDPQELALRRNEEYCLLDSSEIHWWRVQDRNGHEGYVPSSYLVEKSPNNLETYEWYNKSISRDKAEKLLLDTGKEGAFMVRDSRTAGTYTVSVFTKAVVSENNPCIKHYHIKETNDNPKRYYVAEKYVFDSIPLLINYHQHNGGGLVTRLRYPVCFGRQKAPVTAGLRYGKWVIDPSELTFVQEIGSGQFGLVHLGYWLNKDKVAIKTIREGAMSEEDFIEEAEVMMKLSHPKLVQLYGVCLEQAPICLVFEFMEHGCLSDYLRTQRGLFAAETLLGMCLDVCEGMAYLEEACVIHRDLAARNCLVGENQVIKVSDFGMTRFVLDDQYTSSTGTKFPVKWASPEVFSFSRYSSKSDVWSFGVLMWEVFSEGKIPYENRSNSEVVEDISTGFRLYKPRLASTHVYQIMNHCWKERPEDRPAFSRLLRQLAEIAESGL
The assay is described as follows: Inhibition of a panel of kinases, in vitro HotSpot kinase assay: ITK. The note with it: D-compounds panel data; 1 μM ATP. In kind it is biochemical. Here is the method: The degree of inhibition of a panel of kinases is determined using the in vitro HotSpot kinase assay (purified enzymes, ^33P-ATP, an appropriate substrate and 1 μM ATP).

What is called IC50 is the concentration that gives 50% inhibition.

Where only a bound is given, the exact number is not on record here.

Consider `Cc1cc(Nc2nc(N3CCC[C@@H](NC(=O)N(C)C)[C@H]3CO)cnc2C(N)=O)sn1` [Example D-67, 5-[(2S,3R)-3-[(dimethylcarbamoyl)amino]-2-(hydroxymethyl)piperidin-1-yl]-3-[(3-methyl-1,2-thiazol-5-yl)amino]pyrazine-2-carboxamide], for which the IC50 in assay [1] and in assay [2] was 1000 to 10000 nM each time.

With `Cc1cc(Nc2nc(N3C[C@@H](NC(=O)N(C)C)CC[C@@H]3C)cnc2C(N)=O)sn1` [Example D-76, 5-[(2S,5S)-5-[(dimethylcarbamoyl)amino]-2-methylpiperidin-1-yl]-3-[(3-methyl-1,2-thiazol-5-yl)amino]pyrazine-2-carboxamide], the figures for the IC50 in assay [1] and in assay [2] were 1000 to 10000 nM and over 10000 nM, respectively.

Turning to `C[C@@H]1[C@H](NC(=O)c2ccc(C(C)(C)C#N)cc2)CCCN1c1cnc(C(N)=O)c(Nc2cnn(C)c2)n1` [Example D-88, 5-[(2R,3R)-3-[4-(1-cyano-1-methylethyl)benzamido]-2-methylpiperidin-1-yl]-3-[(1-methyl-1H-pyrazol-4-yl)amino]pyrazine-2-carboxamide], the IC50 in assay [1] lay in the range of 1000 to 10000 nM; in assay [2], 100 to 1000 nM.

On to `C[C@@H]1[C@H](NC(=O)c2ccc(C3CC3)cc2)CCCN1c1cnc(C(N)=O)c(Nc2cnn(CC3CCC(F)(F)CC3)c2)n1` [Example D-321, 5-[(2R,3R)-3-(4-cyclopropylbenzamido)-2-methylpiperidin-1-yl]-3-({1-[(4,4-difluorocyclohexyl)methyl]-1H-pyrazol-4-yl}amino)pyrazine-2-carboxamide], for which the values for the IC50 in assay [1] and in assay [2] were over 10000 nM and 100 to 1000 nM, respectively.

As for `Cn1cc(Nc2nc(N3CC[C@@H](O)[C@H](NC(=O)c4ccc(C5CC5)cc4)C3)cnc2C(N)=O)cn1` (racemic) [Example D-26, (racemic)-trans-5-[3-(4-cyclopropylbenzamido)-4-hydroxypiperidin-1-yl]-3-[(1-methyl-1H-pyrazol-4-yl)amino]pyrazine-2-carboxamide], the IC50 in assay [1] was over 10000 nM; in assay [2], 1000 to 10000 nM.

For `Cn1cc(Nc2nc(N3CCC[C@H]4[C@@H]3CCN4C(=O)c3ccc(C4CC4)cc3)cnc2C(N)=O)cn1` [Example D-45, 5-[(3aS,7aS)-1-(4-cyclopropylbenzoyl)-octahydro-1H-pyrrolo[3,2-b]pyridin-4-yl]-3-[(1-methyl-1H-pyrazol-4-yl)amino]pyrazine-2-carboxamide], the IC50 in assay [1] and in assay [2] was 1000 to 10000 nM throughout.

With `C[C@@H]1C[C@H](NC(=O)c2ccc(C3CC3)cc2)CN(c2cnc(C(N)=O)c(Nc3cnn(C)c3)n2)C1` [Example D-32, 5-[(3S,5R)-3-(4-cyclopropylbenzamido)-5-methylpiperidin-1-yl]-3-[(1-methyl-1H-pyrazol-4-yl)amino]pyrazine-2-carboxamide], the IC50 in assay [1] and in assay [2] was over 10000 nM in each case.

As for `CN1CCN(C(=O)c2ccc(Nc3nc(N[C@H]4CC[C@H](NC(=O)N(C)C)CC4)cnc3C(N)=O)cc2)CC1` [Example D-69, 3-{[4-(4-methylpiperazine-1-carbonyl)phenyl]amino}-5-{[(1 r,4r)-4-[(dimethylcarbamoyl)amino]cyclohexyl]amino}pyrazine-2-carboxamide], the half-inhibitory concentration (IC50) in assay [1] lay in the range of 100 to 1000 nM; in assay [2], 1000 to 10000 nM.

As to `C[C@@H]1[C@H](NC(=O)C23CC(C2)C3)CCCN1c1cnc(C(N)=O)c(Nc2cnn(C)c2)n1` [Example D-90, 5-[(2R,3R)-3-{bicyclo[1.1.1]pentane-1-amido}-2-methylpiperidin-1-yl]-3-[(1-methyl-1H-pyrazol-4-yl)amino]pyrazine-2-carboxamide], the values for the IC50 in assay [1] and in assay [2] were 1000 to 10000 nM and 100 to 1000 nM, respectively.

For the compound `Cn1cc(Nc2nc(N3CCC[C@@H]4[C@H]3CCCN4C(=O)c3ccc(C4CC4)cc3)cnc2C(N)=O)cn1` [Example D-46, 5-I[(4aR,8aR)-5-(4-cyclopropylbenzoyl)-decahydro-1,5-naphthyridin-1-yl]-3-[(1-methyl-1H-pyrazol-4-yl)amino]pyrazine-2-carboxamide], the IC50 in assay [1] and in assay [2] was 1000 to 10000 nM in each case.

`CN(C)C(=O)N[C@H]1CCCN(c2cnc(C(N)=O)c(Nc3ccc4ncccc4c3)n2)[C@H]1CO` (racemic) [Example D-65, cis 5-[3-[(dimethylcarbamoyl)amino]-2-(hydroxymethyl)piperidin-1-yl]-3-[(quinolin-6-yl)amino]pyrazine-2-carboxamide]: the IC50 in assay [1] and in assay [2] was over 10000 nM throughout.

Consider `C[C@@H]1[C@H](NC(=O)N(C)C)CCCN1c1cnc(C(N)=O)c(Nc2ccc(N3CCN(C)CC3)cc2F)n1` [Example D-52, 5-[(2R,3R)-3-[(dimethylcarbamoyl)amino]-2-methylpiperidin-1-yl]-3-{[2-fluoro-4-(4-methylpiperazin-1-yl)phenyl]amino}pyrazine-2-carboxamide], for which the IC50 in assay [1] is over 10000 nM; in assay [2] it was 100 to 1000 nM.

In the case of `C[C@@H]1[C@H](NC(=O)c2ccc(C(C)(C)CO)cc2)CCCN1c1cnc(C(N)=O)c(Nc2cnn(C)c2)n1` [Example D-94, 5-[(2R,3R)-3-[4-(1-hydroxy-2-methylpropan-2-yl)benzamido]-2-methylpiperidin-1-yl]-3-[(1-methyl-1H-pyrazol-4-yl)amino]pyrazine-2-carboxamide], the concentration for half-maximal inhibition (IC50) in assay [1] and in assay [2] was 100 to 1000 nM each time.

In the case of `CN(C)C(=O)N[C@@H]1CCCN(c2cnc(C(N)=O)c(Nc3ccc(C4(C)CCN(C5CCCC5)CC4)cc3)n2)[C@@H]1CO` [Example D-58, 3-{[4-(1-cyclopentyl-4-methylpiperidin-4-yl)phenyl]amino}-5-[(2S,3R)-3-[(dimethylcarbamoyl)amino]-2-(hydroxymethyl)piperidin-1-yl]pyrazine-2-carboxamide], the IC50 in assay [1] and in assay [2] was 1000 to 10000 nM in each case.

Take `Cc1cc(Nc2nc(N3CCC[C@H](NC(=O)N(C)C)[C@@H]3CO)cnc2C(N)=O)sn1` [Example D-68, 5-[(2R,3S)-3-[(dimethylcarbamoyl)amino]-2-(hydroxymethyl)piperidin-1-yl]-3-[(3-methyl-1,2-thiazol-5-yl)amino]pyrazine-2-carboxamide]: the 50% inhibitory concentration (IC50) in assay [1] is 1000 to 10000 nM; in assay [2], over 10000 nM.

For `C[C@@H]1[C@H](N2Cc3cc(C4CC4)ccc3C2=O)CCCN1c1cnc(C(N)=O)c(Nc2cnn(C)c2)n1` [Example D-36, 5-[(2R,3R)-3-(5-cyclopropyl-1-oxo-2,3-dihydro-1H-isoindol-2-yl)-2-methylpiperidin-1-yl]-3-[(1-methyl-1H-pyrazol-4-yl)amino]pyrazine-2-carboxamide], the IC50 in assay [1] and in assay [2] was 100 to 1000 nM in each case.

Regarding `C[C@@H]1[C@H](NC(=O)c2ccc(N(C)C)cn2)CCCN1c1cnc(C(N)=O)c(Nc2cnn(C)c2)n1` [Example D-84, 5-[(2R,3R)-3-[5-(dimethylamino)pyridine-2-amido]-2-methylpiperidin-1-yl]-3-[(1-methyl-1H-pyrazol-4-yl)amino]pyrazine-2-carboxamide], the half-maximal inhibitory concentration (IC50) is over 10000 nM in assay [1] and 100 to 1000 nM in assay [2].

Take `C[C@@H]1[C@H](NC(=O)c2ccc(C3CC3)cc2)CCCN1c1cnc(C(N)=O)c(Nc2ccc3nccn3c2)n1` [Example D-83, 5-[(2R,3R)-3-(4-cyclopropylbenzamido)-2-methylpiperidin-1-yl]-3-({imidazo[1,2-a]pyridin-6-yl}amino)pyrazine-2-carboxamide]: the half-maximal inhibitory concentration (IC50) in assay [1] and in assay [2] was 1000 to 10000 nM throughout.
